The target of one assay is T1, Tec kinase (Homo sapiens, UniProt P42680).
T1 sequence (P42680 1-631): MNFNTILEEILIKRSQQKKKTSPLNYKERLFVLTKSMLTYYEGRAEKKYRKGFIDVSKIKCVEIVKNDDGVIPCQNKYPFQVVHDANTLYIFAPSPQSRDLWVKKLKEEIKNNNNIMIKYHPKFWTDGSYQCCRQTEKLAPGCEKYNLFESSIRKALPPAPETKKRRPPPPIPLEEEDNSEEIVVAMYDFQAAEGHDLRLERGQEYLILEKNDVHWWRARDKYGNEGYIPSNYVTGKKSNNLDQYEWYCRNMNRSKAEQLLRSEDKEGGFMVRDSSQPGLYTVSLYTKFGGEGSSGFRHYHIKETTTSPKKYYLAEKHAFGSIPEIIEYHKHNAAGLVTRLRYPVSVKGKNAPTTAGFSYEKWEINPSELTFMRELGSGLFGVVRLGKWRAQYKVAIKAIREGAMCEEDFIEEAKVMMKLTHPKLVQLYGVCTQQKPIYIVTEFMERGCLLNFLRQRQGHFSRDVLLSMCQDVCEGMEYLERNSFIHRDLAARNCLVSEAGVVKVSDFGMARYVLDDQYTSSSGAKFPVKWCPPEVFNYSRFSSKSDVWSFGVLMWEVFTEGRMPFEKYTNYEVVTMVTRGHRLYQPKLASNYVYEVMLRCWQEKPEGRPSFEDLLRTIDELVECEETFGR
Kind of assay: Tec Kinase Activity Assay. To be noted: read-out: Tec % INH, at 30 uM. The format is biochemical. Put shortly:
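Biochemical Tec kinase reaction in Tris-HCl/MgCl2/EGTA/DTT buffer with 75 μM ATP, compound pre-incubated with enzyme for 30 min, then biotinylated Pyk-2 substrate added for 2 h at room temperature. Phosphorylated product captured on streptavidin and detected by anti-phosphotyrosine ELISA with alkaline phosphatase/Attophos fluorescence.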

A further assay concerns the target RET kinase (Homo sapiens, UniProt P07949). As to the kind of experiment: RET Kinase Activity Assay. The format is biochemical. As to conditions: read-out: Ret, % INH, at 30 uM. Put shortly:
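RET […] was preincubated with compound for 15 min, then phosphorylated biotinylated Pyk-2 substrate for 1 h at room temperature with 75 μM ATP and 10 mM MgCl2. Product was captured on streptavidin plates and detected with anti-phosphotyrosine, an AP-tagged secondary antibody and Attophos fluorescence.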

Bounds are passed on as bounds.

RET kinase, sequence (P07949 29-1114): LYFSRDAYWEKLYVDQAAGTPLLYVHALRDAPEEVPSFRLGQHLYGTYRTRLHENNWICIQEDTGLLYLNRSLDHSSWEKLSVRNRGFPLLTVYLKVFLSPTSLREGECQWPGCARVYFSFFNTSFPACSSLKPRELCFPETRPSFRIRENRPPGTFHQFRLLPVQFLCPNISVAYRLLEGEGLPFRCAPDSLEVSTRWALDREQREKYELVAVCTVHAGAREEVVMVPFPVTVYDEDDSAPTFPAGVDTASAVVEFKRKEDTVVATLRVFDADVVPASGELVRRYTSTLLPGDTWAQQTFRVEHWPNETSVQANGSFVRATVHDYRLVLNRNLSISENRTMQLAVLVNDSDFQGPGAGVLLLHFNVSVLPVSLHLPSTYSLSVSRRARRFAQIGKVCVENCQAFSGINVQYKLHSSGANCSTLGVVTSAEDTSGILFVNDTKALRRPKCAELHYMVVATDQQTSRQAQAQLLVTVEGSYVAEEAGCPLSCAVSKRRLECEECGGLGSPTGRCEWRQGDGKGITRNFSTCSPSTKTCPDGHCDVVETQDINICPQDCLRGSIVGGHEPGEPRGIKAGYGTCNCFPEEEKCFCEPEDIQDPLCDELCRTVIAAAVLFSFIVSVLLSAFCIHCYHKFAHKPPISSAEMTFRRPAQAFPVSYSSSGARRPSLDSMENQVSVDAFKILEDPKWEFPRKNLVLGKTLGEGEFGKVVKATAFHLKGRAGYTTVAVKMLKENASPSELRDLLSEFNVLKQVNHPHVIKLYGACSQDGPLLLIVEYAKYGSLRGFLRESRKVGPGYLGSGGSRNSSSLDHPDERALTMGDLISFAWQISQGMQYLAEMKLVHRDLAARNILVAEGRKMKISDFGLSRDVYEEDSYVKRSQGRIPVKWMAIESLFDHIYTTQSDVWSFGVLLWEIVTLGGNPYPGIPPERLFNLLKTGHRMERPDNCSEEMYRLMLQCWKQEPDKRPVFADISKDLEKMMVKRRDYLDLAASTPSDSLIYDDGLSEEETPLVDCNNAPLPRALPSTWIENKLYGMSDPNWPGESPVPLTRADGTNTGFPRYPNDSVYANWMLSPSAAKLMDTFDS

As to `Nc1nc(N2CCN(Cc3ccc(Cl)c(Cl)c3)c3ccccc3C2)c2cn[nH]c2n1` [Compound 43, 4-[1-(3,4-dichlorobenzyl)-1,2,3,5-tetrahydro-4H-1,4-benzodiazepin-4-yl]-1H-pyrazolo[3,4-d]pyrimidin-6-amine], the inhibition at 30 µM on Tec kinase is over 79%; at RET kinase, 50 to 79%.
For `COc1ccc(CN2CCN(c3nc(N)nc4[nH]cnc34)Cc3ccccc32)cc1OC` [Compound 27, 6-[1-(3,4-dimethoxybenzyl)-1,2,3,5-tetrahydro-4H-1,4-benzodiazepin-4-yl]-9H-purin-2-amine], the inhibition at 30 µM at Tec kinase was 50 to 79%; at RET kinase it was under 50%.
For `CC(C)(C)c1ccc(CN2CCN(c3nc(N)nc4[nH]cnc34)Cc3ccccc32)cc1` [Compound 29, 6-[1-(4-tert-butylbenzyl)-1,2,3,5-tetrahydro-4H-1,4-benzodiazepin-4-yl]-9H-purin-2-amine], in that order: under 50% and under 50%.
In the same order, the values of `Nc1nc(N2CCN(Cc3ccc(F)c(F)c3)c3ccccc3C2)c2nc[nH]c2n1` [Compound 46, 6-[1-(3,4-difluorobenzyl)-1,2,3,5-tetrahydro-4H-1,4-benzodiazepin-4-yl]-9H-purin-2-amine] are under 50% and 50 to 79%.
As to `COc1cc2c(cc1OC)C(CCc1ccccc1)N(c1nc(N)nc3[nH]ncc13)CC2` (stereo not shown) [Compound 51, 4-[6,7-dimethoxy-1-(2-phenylethyl)-3,4-dihydroisoquinolin-2(1H)-yl]-1H-pyrazolo[3,4-d]pyrimidin-6-amine], the figures for the inhibition at 30 µM on Tec kinase and on RET kinase were under 50% and 50 to 79%, respectively.
